Test results: patent publication US9474790B2, “Stable, protracted GLP-1/glucagon receptor co-agonists for medical use” (Novo Nordisk A/S, priority 2013, dated 2016)
Numbered stars: 1 amine (or outer) side, 2 acyl side, 3 side chain; on linkers, the order of the positions; unused ones are H or OH. Bridge positions count the residues as written; N and C are the ends. Square brackets hold non-standard residues; d marks the D form. Side chains are listed from the residue outwards. Peptide text beside a SMILES is read from it. I, II: the chains in the order shown. * marks the point of attachment. C18 diacid = O=C(O)CCCCCCCCCCCCCCCCC(=O)*; γGlu = O=C(O)[C@H](CCC(=O)[*:2])N[*:1]; AEEA = NCCOCCOCC(=O)O; Aib = CC(C)(N)C(=O)O

Experiments:
[1] = Chemical stability assessment by RP-UPLC; format: physicochemical; settings: 333 μM, 8 mM phosphate buffer pH 7.3, 37° C. vs 5° C.
Method in brief: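 Purity loss = (purity after 14 days at 5° C. minus that at 37° C.) relative to the 5° C. value, purity being main-peak area % by RP-UPLC with UV at 215 nm. Samples were 333 μM in 8 mM phosphate, pH 7.3; gradient adjusted for outlying retention times.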

[2] = molecular target: T1, human GLP-1 receptor (Homo sapiens, UniProt P43220); assay: GLP-1 receptor binding, 125I-GLP-1 displacement SPA on isolated membranes; settings: displacement of 125I-GLP-1 from membranes; read-out: IC50 GLP-1R
T1 construct: expressed in transfected cells; host or cells: BHK cells (parent BHKTS13), clone FCW467-12A/KZ10-1, with CRE luciferase
T1 sequence (P43220 24-463): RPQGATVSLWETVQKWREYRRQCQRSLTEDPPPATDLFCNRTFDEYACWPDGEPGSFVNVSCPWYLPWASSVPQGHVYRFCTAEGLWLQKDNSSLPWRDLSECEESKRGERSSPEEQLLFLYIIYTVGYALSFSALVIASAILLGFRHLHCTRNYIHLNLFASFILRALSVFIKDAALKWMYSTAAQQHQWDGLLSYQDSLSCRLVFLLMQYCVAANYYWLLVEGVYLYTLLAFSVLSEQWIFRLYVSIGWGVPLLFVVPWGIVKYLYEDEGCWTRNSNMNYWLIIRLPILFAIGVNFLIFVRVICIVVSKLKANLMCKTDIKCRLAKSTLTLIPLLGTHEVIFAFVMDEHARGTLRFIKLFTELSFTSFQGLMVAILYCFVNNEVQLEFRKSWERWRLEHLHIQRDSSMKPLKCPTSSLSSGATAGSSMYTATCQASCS
Method in brief: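 Test derivatives, serially diluted, competed with 125I-GLP-1(7-36)NH2 for the human GLP-1 receptor on BHK membranes, read by WGA-bead scintillation proximity after 2 h at 30°C, pH 7.4 HEPES/EGTA/MgCl2 buffer. Final serum albumin was either ≤0.001% or 2.0%; IC50 from non-linear fit.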

Row | Compound | Purity loss; 14 days at 37° C. [1] [%] | IC50 [2] [nM]
1 | CC(C)C[C@H](NC(=O)[C@H](CC(=O)O)NC(=O)[C@H](CC(C)C)NC(=O)[C@H](Cc1ccc(O)cc1)NC(=O)[C@H](CCCCN)NC(=O)[C@H](CO)NC(=O)[C@H](CC(C)C)NC(=O)[C@H](CC(=O)O)NC(=O)[C@H](CO)NC(=O)[C@@H](NC(=O)[C@H](Cc1ccccc1)NC(=O)[C@@H](NC(=O)CNC(=O)[C@H](CCC(N)=O)NC(=O)C(C)(C)NC(=O)[C@@H](N)Cc1c[nH]cn1)[C@@H](C)O)[C@@H](C)O)C(=O)N[C@@H](CCCCN)C(=O)N[C@@H](CCCNC(=N)N)C(=O)N[C@@H](C)C(=O)N[C@@H](CCCNC(=N)N)C(=O)N[C@@H](CCC(=O)O)C(=O)N[C@@H](Cc1ccccc1)C(=O)N[C@H](C(=O)N[C@@H](CCC(N)=O)C(=O)N[C@@H](Cc1c[nH]c2ccccc12)C(=O)N[C@@H](CC(C)C)C(=O)N[C@@H](CC(C)C)C(=O)N[C@@H](CCCCNC(=O)CC[C@H](NC(=O)CC[C@H](NC(=O)COCCOCCNC(=O)COCCOCCNC(=O)CC[C@H](NC(=O)CCCCCCCCCCCCCCCCC(=O)O)C(=O)O)C(=O)O)C(=O)O)C(=O)N[C@H](C(N)=O)[C@@H](C)O)C(C)C [Example 26, N^ε28-[(4S)-4-carboxy-4-[[(4S)-4-carboxy-4-[[2-[2-[2-[[2-[2-[2-[[(4S)-4-carboxy-4-(17-carboxyheptadecanoylamino)butanoyl]amino]ethoxy]ethoxy]-acetyl]amino]ethoxy]ethoxy]acetyl]amino]butanoyl]amino]butanoyl]-[Aib2,Leu10,Leu16,Lys17,Arg20,Glu21, Leu27,Lys28]-Glucagon amide] (H-H[Aib]QGTFTSDLSKYLDLKRAREFVQWLLK([γGlu-γGlu-AEEA-AEEA-γGlu-C18 diacid])T-NH2) | 2 | 0.5
2 | CC(C)C[C@H](NC(=O)[C@H](Cc1ccc(O)cc1)NC(=O)[C@H](CCCCN)NC(=O)[C@H](CO)NC(=O)[C@H](CC(C)C)NC(=O)[C@H](CC(=O)O)NC(=O)[C@H](CO)NC(=O)[C@@H](NC(=O)[C@H](Cc1ccccc1)NC(=O)[C@@H](NC(=O)CNC(=O)[C@H](Cc1c[nH]cn1)NC(=O)C(C)(C)NC(=O)[C@@H](N)Cc1c[nH]cn1)[C@@H](C)O)[C@@H](C)O)C(=O)N[C@@H](CCC(=O)O)C(=O)N[C@@H](CO)C(=O)N[C@@H](CCCCN)C(=O)N[C@@H](CCCNC(=N)N)C(=O)N[C@@H](C)C(=O)N[C@@H](CCCNC(=N)N)C(=O)N[C@@H](CCC(=O)O)C(=O)N[C@@H](Cc1ccccc1)C(=O)N[C@H](C(=O)N[C@@H](CCC(N)=O)C(=O)N[C@@H](Cc1c[nH]c2ccccc12)C(=O)N[C@@H](CC(C)C)C(=O)N[C@@H](CC(C)C)C(=O)N[C@@H](CCCCNC(=O)CC[C@H](NC(=O)CC[C@H](NC(=O)COCCOCCNC(=O)COCCOCCNC(=O)CC[C@H](NC(=O)CCCCCCCCCCCCCCCCC(=O)O)C(=O)O)C(=O)O)C(=O)O)C(=O)N[C@H](C(N)=O)[C@@H](C)O)C(C)C [Example 27, N^ε28-[(4S)-4-carboxy-4-[[(4S)-4-carboxy-4-[[2-[2-[2-[[2-[2-[2-[[(4S)-4-carboxy-4-(17-carboxyheptadecanoylamino)butanoyl]amino]ethoxy]ethoxy]acetyl]amino]ethoxy]ethoxy]acetyl]amino]butanoyl]amino]butanoyl]-[Aib2,His3,Leu10,Glu15,Lys17,Arg20,Glu21,Leu27, Lys28]-Glucagon amide] (H-H[Aib]HGTFTSDLSKYLESKRAREFVQWLLK([γGlu-γGlu-AEEA-AEEA-γGlu-C18 diacid])T-NH2; N-terminus assumed) | 5 | 0.9

Stronger by IC50 [2], values ahead:

Row | Purity loss; 14 days at 37° C. [1] [%] | IC50 [2] [nM] | Compound
3 | 2 | 0.3 | CC(C)C[C@H](NC(=O)[C@H](Cc1ccc(O)cc1)NC(=O)[C@H](CCCCN)NC(=O)[C@H](CO)NC(=O)[C@H](CC(C)C)NC(=O)[C@H](CC(=O)O)NC(=O)[C@H](CO)NC(=O)[C@@H](NC(=O)[C@H](Cc1ccccc1)NC(=O)[C@@H](NC(=O)CNC(=O)[C@H](CCC(N)=O)NC(=O)C(C)(C)NC(=O)[C@@H](N)Cc1c[nH]cn1)[C@@H](C)O)[C@@H](C)O)C(=O)N[C@@H](CCC(=O)O)C(=O)N[C@@H](CO)C(=O)N[C@@H](CCCNC(=N)N)C(=O)N[C@@H](CCCNC(=N)N)C(=O)N[C@@H](C)C(=O)N[C@@H](CCCNC(=N)N)C(=O)N[C@@H](CCC(=O)O)C(=O)N[C@@H](Cc1ccccc1)C(=O)N[C@H](C(=O)N[C@@H](CCC(N)=O)C(=O)N[C@@H](Cc1c[nH]c2ccccc12)C(=O)N[C@@H](CC(C)C)C(=O)N[C@@H](CC(C)C)C(=O)N[C@@H](CCCCNC(=O)CC[C@H](NC(=O)CC[C@H](NC(=O)COCCOCCNC(=O)COCCOCCNC(=O)CC[C@H](NC(=O)CCCCCCCCCCCCCCCCC(=O)O)C(=O)O)C(=O)O)C(=O)O)C(=O)N[C@H](C(N)=O)[C@@H](C)O)C(C)C [Example 23, N^ε28-[(4S)-4-carboxy-4-[[(4S)-4-carboxy-4-[[2-[2-[2-[[2-[2-[2-[[(4S)-4-carboxy-4-(17-carboxyheptadecanoylamino)butanoyl]amino]ethoxy]ethoxy]acetyl]amino]ethoxy]ethoxy]acetyl]amino]butanoyl]amino]butanoyl]-[Aib2,Leu10,Glu15,Arg20,Glu21,Leu27,Lys28]-Glucagon amide] (H-H[Aib]QGTFTSDLSKYLESRRAREFVQWLLK([γGlu-γGlu-AEEA-AEEA-γGlu-C18 diacid])T-NH2; N-terminus assumed)
4 | 1 | 0.2 | CC(C)C[C@H](NC(=O)[C@H](Cc1ccc(O)cc1)NC(=O)[C@H](CCCCN)NC(=O)[C@H](CO)NC(=O)[C@H](CC(C)C)NC(=O)[C@H](CC(=O)O)NC(=O)[C@H](CO)NC(=O)[C@@H](NC(=O)[C@H](Cc1ccccc1)NC(=O)[C@@H](NC(=O)CNC(=O)[C@H](CCC(N)=O)NC(=O)C(C)(C)NC(=O)[C@@H](N)Cc1c[nH]cn1)[C@@H](C)O)[C@@H](C)O)C(=O)N[C@@H](CCC(=O)O)C(=O)N[C@@H](CO)C(=O)N[C@@H](CCCCN)C(=O)N[C@@H](CCCNC(=N)N)C(=O)N[C@@H](C)C(=O)N[C@@H](CCCNC(=N)N)C(=O)N[C@@H](CCC(=O)O)C(=O)N[C@@H](Cc1ccccc1)C(=O)N[C@H](C(=O)N[C@@H](CCC(N)=O)C(=O)N[C@@H](Cc1c[nH]c2ccccc12)C(=O)N[C@@H](CC(C)C)C(=O)N[C@@H](CC(C)C)C(=O)N[C@@H](CCCCNC(=O)CNC(=O)[C@H](CO)NC(=O)[C@H](CCC(=O)O)NC(=O)CNC(=O)[C@H](CO)NC(=O)CC[C@H](NC(=O)CC[C@H](NC(=O)CCCCCCCCCCCCCCCCC(=O)O)C(=O)O)C(=O)O)C(=O)N[C@H](C(N)=O)[C@@H](C)O)C(C)C [Example 25, N^ε28-[2-[[(2S)-2-[[(2S)-4-carboxy-2-[[2-[[(2S)-2-[[(4S)-4-carboxy-4-[[(4S)-4-carboxy-4-(17-carboxyheptadecanoylamino)butanoyl]amino]butanoyl]amino]-3-hydroxypropanoyl]amino]acetyl]amino]butanoyl]amino]-3-hydroxypropanoyl]amino]acetyl]-[Aib2,Leu10,Glu15,Lys17,Arg20,Glu21,Leu27,Lys28]-Glucagon amide] (I: H-H[Aib]QGTFTSDLSKYLESKRAREFVQWLLKT-NH2 / II: {C18 diacid-γGlu-γGlu}-SGESG; amide I:28-II:C; N-terminus assumed)
5 | 5 | 0.2 | CC(C)C[C@H](NC(=O)[C@H](Cc1ccc(O)cc1)NC(=O)[C@H](CCCCN)NC(=O)[C@H](CO)NC(=O)[C@H](CC(C)C)NC(=O)[C@H](CC(=O)O)NC(=O)[C@H](CO)NC(=O)[C@@H](NC(=O)[C@H](Cc1ccccc1)NC(=O)[C@@H](NC(=O)CNC(=O)[C@H](Cc1c[nH]cn1)NC(=O)C(C)(C)NC(=O)[C@@H](N)Cc1c[nH]cn1)[C@@H](C)O)[C@@H](C)O)C(=O)N[C@@H](CCC(=O)O)C(=O)N[C@@H](CO)C(=O)N[C@@H](CCCCN)C(=O)N[C@@H](CCCNC(=N)N)C(=O)N[C@@H](C)C(=O)N[C@@H](CCCNC(=N)N)C(=O)N[C@@H](CCC(=O)O)C(=O)N[C@@H](Cc1ccccc1)C(=O)N[C@H](C(=O)N[C@@H](CCC(N)=O)C(=O)N[C@@H](Cc1c[nH]c2ccccc12)C(=O)N[C@@H](CC(C)C)C(=O)N[C@@H](CC(C)C)C(=O)N[C@@H](CCCCNC(=O)CC[C@H](NC(=O)CC[C@H](NC(=O)CC[C@H](NC(=O)CCCCCCCCCCCCCCCCC(=O)O)C(=O)O)C(=O)O)C(=O)O)C(=O)N[C@H](C(N)=O)[C@@H](C)O)C(C)C [Example 34, N^ε28-[(4S)-4-carboxy-4-[[(4S)-4-carboxy-4-[[(4S)-4-carboxy-4-(17-carboxyheptadecanoylamino)butanoyl]amino]butanoyl]amino]butanoyl]-[Aib2,His3,Leu10,Glu15,Lys17,Arg20,Glu21,Leu27,Lys28]-Glucagon amide] (H-H[Aib]HGTFTSDLSKYLESKRAREFVQWLLK([γGlu-γGlu-γGlu-C18 diacid])T-NH2; N-terminus assumed)
